Data as given in EP0425902A1, “Use of isosorbide 2-mononitrate in the preparation of pharmaceutical compositions for treating angina pectoris” (ISCOFAR Sas di Paolo E. Ghirardi, priority 1989, dated 1991).
“And” between values parts separate entries of the source, which are not always exact repeats. Equal values may be shown once. “Also recorded” adds a separate entry of the source.

Legend:
[1] = Long-period stability of active principle in tablets
[2] = Acute treatment by tongue absorption, pulmonary artery pressure by cardiac catheter; details: in vivo
isolated rabbit heart = test: Vasodilatory effect on isolated rabbit heart with vasopressin-induced spasm (coronary perfusion pressure)
Description: All nitroderivatives induce a tolerance phenomenon but the degree of the lack of the vasodilatory effect was lesser in the case of isosorbide 2-nitroderivative. […] Isolated rabbit hearts and aortic strips were used as experimental model to evaluate drugs acting on coronary resistance and vascular contractility.
Vasodilatory effect was evaluated on isolated rabbit heart in presence of vasopressin-induced spasm by using concentration of 10⁻⁵M of the tested compounds.

rabbit aortic strips = test: Induction of nitrate tolerance in rabbit aortic strips preincubated with nitroderivative
[3] = Clinical trial, ergometer bicycle effort test before and after two months of chronic 2MN treatment; details: human, in vivo
cyclic GMP = test: Cyclic GMP accumulation in laboratory tests
Description: It has been furthermore shown through the laboratory tests that no relationship between the amount of the measured cyclic guanine mono-phosphate (GMP) and the extent of the inhibitory effect can be observed.
In our experiments, the development of nitrate tolerance seems to be related to cyclic GMP accumulation, being greater in the case of NTG, thus confirming that SH groups consumption is the molecular mechanism responsible for this phenomenon.

[4] = Clinical trials of tongue absorption administration on onset of anginal attack; details: human, in vivo

Row | SMILES | loss of active principle in the pharmaceutical forms (tablets) in the long period [1] | Activity commences after taking the drug [2] | Activity lasts (average) [2] | Commencement of activity [2] | Max decrease in pulmonary artery pressure % [2] | activity in reducing coronary perfusion pressure relative to other nitroderivatives (isolated rabbit heart) | degree of desensitization after induction of nitrate tolerance (rabbit aortic strips) | degree of tolerance induced (rabbit aortic strips) | Exercise time [3] | Max work tolerated (watt) [3] | S-T (mm) [3] | S-T Δ % [3] | anginal attacks, nitroglycerin consumption and arterial pressure [3] | tolerance after chronic treatment [3] | cyclic GMP accumulation / increase (cyclic GMP) | effect on anginal attack [4] | inhibition at 10 µM (isolated rabbit heart; Oryctolagus cuniculus, isolated rabbit heart, vasopressin-induced spasm, 10⁻⁵M, read-out: reduce coronary spasm (coronary perfusion pressure, CPP))
1 | O=[N+]([O-])O[C@H]1CO[C@H]2[C@@H]1OC[C@H]2O [2MN, isosorbide 2-mononitrate] | minimal | 3 to 4 min | 80 min | 180 s and 250 s and 230 s and 160 s and 200 s and 210 s and 204.2 s | 20% and 38% and 30% and 27% and 31% and 40% and 29% and 30.7% | more active than 5MN and ISDN | significantly lower | lesser degree of tolerance | 8.6 ± 1.4 min and 8.9 ± 1.1 min | 144±36 watt and 148±36 watt | 1.5±0.7 mm and 1.8±0.9 mm | -29 (P<0.05) % and -25 (P<0.05) % | noted reduction | does not give rise to tolerance | lesser increase | able to prevent anginal attack or to cause its rapid regression; also recorded: Analogous results | 
2 | O=[N+]([O-])OCC(CO[N+](=O)[O-])O[N+](=O)[O-] [NTG, nitroglycerin, reference compound] |  |  |  |  |  |  |  |  |  |  |  |  |  |  | greater |  | 80%
